Reference: US20260355192A1, “PROPHYLACTIC OR THERAPEUTIC AGENT FOR PERIOSTIN-MEDIATED DISEASE AND PRURITUS ASSOCIATED THEREWITH” (SAGA UNIVERSITY, priority 2022, published 2026)
Values belong to the molecule of their own block, whether it stands above or below them.

Legend:
integrin αvβ3 [1] = molecular target: T1, integrin αvβ3 (Homo sapiens, UniProt P05106+P06756); assay: Inhibition of periostin-dependent adhesion of SW480 cells expressing integrin αvβ3; type: cell-based; settings: immobilized recombinant human periostin, FIG. 6; for IC50: SW480 cells expressing human integrin β3, compounds at 0.001-1 μM, read-out: 50% inhibition concentration (IC50 value) for cell adhesion inhibitory activity; for cell adhesion inhibitory effect (in words): SW480 cells expressing integrin αvβ3
T1 construct: SW480 cells, a human colon cancer cell line not expressing integrin β3; expressed in transfected cells; host or cells: SW480 cells (human colon cancer) stably expressing human integrin β3
Method: For use in cell adhesion experiments, SW480 cells, a human colon cancer cell line not expressing integrin β3, were genetically engineered to stably express human integrin β3 (Nanri Y, et al. Am J Respir Cell Mol Biol. 62:204-216, 2020). The compounds shown in Table 1 were examined for their inhibitory activity against adhesion between integrin αvβ3 and periostin according to the following procedures. First, a 96-well plate was treated with 10 μg/mL recombinant human periostin (Bio-Techne) at 4 °C for 16 hours to immobilize periostin. The SW480 cells expressing integrin αvβ3 (5×10^4 cells) were reacted at room temperature for 15 minutes with the above compounds at 0.001, 0.01, 0.1 and 1 μM in serum-free DMEM (Dulbecco's Modified Eagle Medium) containing 0.5% bovine serum albumin and 0.25 mM MnCl2. A group receiving no compound was used as a control. The reacted cell suspensions were added to separate wells of the above human periostin-immobilized plate, and the plate was centrifuged at 10×g for 5 minutes and then cultured at 37 °C for 60 minutes. Then, after the adhered cells were washed to remove unbound cells, the adhered cells were fixed with 1% formaldehyde and stained with 0.5% crystal violet. The fixed and stained cells were solubilized with 0.2% Triton X-100 and measured for absorbance at 595 nm. The absorbance of the control (i.e., the group receiving no compound) was set to 0% inhibition. […] Cell adhesion in this test system is periostin-dependent, and a compound inhibiting this cell adhesion can be referred to as a periostin receptor antagonist.

[2] = tested on: scratching behaviors in FADS mice; assay: Scratching behaviors in FADS mice upon single systemic administration of αvβ3 integrin inhibitors; type: in vivo, mouse (FADS, Nestin-cre/Ikk2ff); settings: for % Change from baseline in the number of scratchings (mean ± standard error): 53.7 μmol/kg i.p., single, 60 minutes after administration vs before administration; for grade of effect on % change from the baseline in the number of scratchings: single i.p., 53.7 μmol/kg (GLPG-0187 5.37 μmol/kg), paired t-test
Excerpt: Nestin-cre transgenic mice were crossed with IKK2^ff mice to prepare Nestin-cre/Ikk2^ff mice specifically lacking IKK2 in their facial skin fibroblasts (Nunomura S, et al. J Invest Dermatol. 139:1274-1283, 2019). These mice inevitably develop atopic dermatitis-like rash limited to the face and intense itchy symptoms, and were therefore designated as Facial Atopic Dermatitis with Scratching (FADS) mice. […] For evaluation of the prophylactic or therapeutic agent of the present invention, FADS mice at 3 to 4 weeks of age or older were used because of showing spontaneous scratching behaviors. It should be noted that in this Example section, the above compound of formula (I) (more particularly “CP4715”) was used as the prophylactic or therapeutic agent of the present invention.
FADS mice were acclimated for 20 minutes to the environment of a recording cage, and then recorded with a video camera. The recorded videos were replayed, and scratching behaviors were counted assuming that hind paw scratching to the face and the subsequent movement of toe licking or paw lowering to the ground were regarded as one cycle of scratching behavior.
Prior to the administration of the above αvβ3 integrin inhibitors, FADS mice were recorded for 60 minutes with a video camera and then allowed to rest for 15 minutes. The compounds except for GLPG-0187 were each dissolved at 89.5 mM in a diluent (physiological saline containing 50% DMSO and 89.5 mM HCL), from which an amount corresponding to 53.7 μmol/kg per mouse was then taken and diluted with 0.3 mL of PBS, and then administered intraperitoneally. […] Mice administered with 0.3 mL of PBS containing an equal amount of the diluent as calculated based on the body weight were used as a control group.
The mice were recorded for 60 minutes with a video camera immediately after administration of the above αvβ3 integrin inhibitors. The number of scratchings before administration was used as a baseline, and % change from the baseline after administration was calculated for each compound. For statistical analysis, paired t-test was used. A P-value of less than 0.05 was considered to be statistically significant. The effect of an inhibitor whose mean change from the baseline was −65% or more at a P-value of less than 0.01 was expressed as “++”; the effect of an inhibitor whose mean change from the baseline was −60% or less at a P-value of less than 0.05 was expressed as “+”; and the effect of an inhibitor whose mean change from the baseline was −60% or less at a P-value of 0.05 or higher was expressed as “−.”

integrin αvβ3 [3] = settings: cited from earlier work
IL-31 receptor = settings: Kabashima K, et al. N Engl J Med. 383:141-150, 2020; cited from earlier work

T1 sequence (P06756 31-889 limits assumed): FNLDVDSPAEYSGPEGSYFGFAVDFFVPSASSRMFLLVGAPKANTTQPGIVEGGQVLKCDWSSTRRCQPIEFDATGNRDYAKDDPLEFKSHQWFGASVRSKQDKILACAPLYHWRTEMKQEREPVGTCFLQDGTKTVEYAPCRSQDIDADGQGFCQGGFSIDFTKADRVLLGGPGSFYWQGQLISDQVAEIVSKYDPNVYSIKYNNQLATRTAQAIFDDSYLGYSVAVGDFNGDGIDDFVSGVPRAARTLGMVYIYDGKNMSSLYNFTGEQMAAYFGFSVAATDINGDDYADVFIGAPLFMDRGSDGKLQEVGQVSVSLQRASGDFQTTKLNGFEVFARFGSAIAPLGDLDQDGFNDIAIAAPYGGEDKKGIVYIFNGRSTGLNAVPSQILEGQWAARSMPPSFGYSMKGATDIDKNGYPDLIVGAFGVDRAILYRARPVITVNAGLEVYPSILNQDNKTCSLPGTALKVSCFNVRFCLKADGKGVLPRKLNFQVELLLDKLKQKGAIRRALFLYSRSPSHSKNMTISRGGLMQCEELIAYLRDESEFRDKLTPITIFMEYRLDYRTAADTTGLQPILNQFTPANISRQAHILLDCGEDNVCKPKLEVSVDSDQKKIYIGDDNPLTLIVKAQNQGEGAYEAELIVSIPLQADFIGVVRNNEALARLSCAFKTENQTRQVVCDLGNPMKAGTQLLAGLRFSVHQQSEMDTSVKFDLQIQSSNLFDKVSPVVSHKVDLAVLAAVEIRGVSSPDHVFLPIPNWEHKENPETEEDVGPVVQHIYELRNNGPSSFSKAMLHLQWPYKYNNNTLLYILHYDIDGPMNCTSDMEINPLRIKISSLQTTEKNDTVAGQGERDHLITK
T1 sequence (P06756 891-1048 partner limits assumed): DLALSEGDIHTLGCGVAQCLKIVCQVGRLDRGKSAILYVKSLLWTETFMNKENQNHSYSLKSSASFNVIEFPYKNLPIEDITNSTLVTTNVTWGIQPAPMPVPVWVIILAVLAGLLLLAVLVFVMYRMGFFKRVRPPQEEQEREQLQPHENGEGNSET
T1 sequence (P05106 27-788): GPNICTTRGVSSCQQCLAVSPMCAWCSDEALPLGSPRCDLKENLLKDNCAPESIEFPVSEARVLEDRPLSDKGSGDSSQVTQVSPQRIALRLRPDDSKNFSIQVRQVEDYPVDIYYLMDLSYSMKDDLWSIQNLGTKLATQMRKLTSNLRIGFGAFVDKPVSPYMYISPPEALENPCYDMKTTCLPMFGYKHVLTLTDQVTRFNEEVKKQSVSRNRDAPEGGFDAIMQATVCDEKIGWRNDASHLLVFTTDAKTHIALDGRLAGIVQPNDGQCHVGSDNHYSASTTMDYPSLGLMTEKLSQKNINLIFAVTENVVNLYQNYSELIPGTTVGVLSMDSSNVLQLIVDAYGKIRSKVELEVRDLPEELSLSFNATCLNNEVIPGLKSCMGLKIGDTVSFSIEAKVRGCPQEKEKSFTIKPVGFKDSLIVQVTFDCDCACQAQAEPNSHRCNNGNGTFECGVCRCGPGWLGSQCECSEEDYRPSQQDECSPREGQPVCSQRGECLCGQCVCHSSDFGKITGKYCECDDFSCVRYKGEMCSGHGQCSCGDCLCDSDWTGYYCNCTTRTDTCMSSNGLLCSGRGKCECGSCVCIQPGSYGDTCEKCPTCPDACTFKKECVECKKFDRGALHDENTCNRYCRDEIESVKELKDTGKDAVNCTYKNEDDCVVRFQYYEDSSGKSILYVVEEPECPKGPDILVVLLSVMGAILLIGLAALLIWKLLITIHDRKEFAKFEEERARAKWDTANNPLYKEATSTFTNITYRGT

IC50 (integrin αvβ3 [1]): ≤ 20 nM
cell adhesion inhibitory effect (in words) (integrin αvβ3 [1]): moderate
Molecule: O=C(O)C[C@@H]1Cc2ccc(OCCCNc3ccccn3)cc2CN(CC(F)(F)F)C1=O [SB-267268, (S)-2-(3-oxo-8-(3-(pyridin-2-ylamino)propoxy)-2-(2,2,2-trifluoroethyl)-2,3,4,5-tetrahydro-1H-benzo[c]azepin-4-yl)acetic acid]
% Change from baseline in the number of scratchings (mean ± standard error) [2]: −5.5 ± 13.4%
grade of effect on % change from the baseline in the number of scratchings [2]: − (mean change from the baseline was −60% or less at a P-value of 0.05 or higher)

IC50 (integrin αvβ3 [1]): ≤ 20 nM
cell adhesion inhibitory effect (in words) (integrin αvβ3 [1]): moderate
Molecule: CNc1cccc(CCOc2ccc3c(c2)CN(CC(F)(F)F)C(=O)[C@H](CC(=O)O)C3)n1 [SB-273005, (S)-2-(8-(2-(6-(methylamino)pyridin-2-yl)ethoxy)-3-oxo-2-(2,2,2-trifluoroethyl)-2,3,4,5-tetrahydro-1H-benzo[c]azepin-4-yl)acetic acid]
% Change from baseline in the number of scratchings (mean ± standard error) [2]: −33.0 ± 11.6%
grade of effect on % change from the baseline in the number of scratchings [2]: + (mean change from the baseline was −60% or less at a P-value of less than 0.05)

cell adhesion inhibitory effect (in words) (integrin αvβ3 [1]): moderate
Molecule: N=C(N)Nc1cccc(C(=O)NCC(=O)NC(CC(=O)O)c2cc(Cl)cc(Cl)c2)c1 (centres unmarked) [SC-68448, 3-(3,5-Dichlorophenyl)-3-(2-(3-guanidinobenzamido)acetamido)propanoic acid]
inhibition of binding between integrin αvβ3 and vitronectin (integrin αvβ3 [3]): inhibit binding
% Change from baseline in the number of scratchings (mean ± standard error) [2]: −83.8 ± 7.7%
grade of effect on % change from the baseline in the number of scratchings [2]: ++ (mean change from the baseline was −65% or more at a P-value of less than 0.01)

IC50 (integrin αvβ3 [1]): ≤ 100 nM
cell adhesion inhibitory effect (in words) (integrin αvβ3 [1]): low
Molecule: Cc1cc(C)c(S(=O)(=O)N[C@@H](CNC(=O)c2ccc3c(cnn3CCCNc3ncc[nH]3)c2)C(=O)O)c(C)c1 [SM-256, (S)-3-(1-(3-((1H-imidazol-2-yl)amino)propyl)-1H-indazole-5-carboxamido)-2-((2,4,6-trimethylphenyl)sulfonamido)propanoic acid]
% Change from baseline in the number of scratchings (mean ± standard error) [2]: −22.5 ± 19.6%

Second part, the molecule before the results:

Molecule: CC(C)COC(=O)N[C@@H](CCC(=O)N1CCN(c2cccc(NC3=NCC(F)CN3)c2)CC1)C(=O)O (stereo partly drawn) [BS-1417, (2S)-5-(4-(3-((5-fluoro-1,4,5,6-tetrahydropyrimidin-2-yl)amino)phenyl)piperazin-1-yl)-2-((isobutoxycarbonyl)amino)-5-oxopentanoic acid]
IC50 (integrin αvβ3 [1]): ≥ 1000 nM
% Change from baseline in the number of scratchings (mean ± standard error) [2]: −43.3 ± 11.9%
grade of effect on % change from the baseline in the number of scratchings [2]: + (mean change from the baseline was −60% or less at a P-value of less than 0.05)

Molecule: O=C(NC[C@H](NS(=O)(=O)c1ccccc1)C(=O)O)c1ccc(N2CCC(NC3=NCCCN3)CC2)c(F)c1 [CP derivative 2, (S)-3-(3-fluoro-4-(4-((1,4,5,6-tetrahydropyrimidin-2-yl)amino)piperidin-1-yl)benzamido)-2-(phenylsulfonamido)propanoic acid]
IC50 (integrin αvβ3 [1]): ≤ 1 nM
cell adhesion inhibitory effect (in words) (integrin αvβ3 [1]): high
% Change from baseline in the number of scratchings (mean ± standard error) [2]: −30.2 ± 18.6%
grade of effect on % change from the baseline in the number of scratchings [2]: − (mean change from the baseline was −60% or less at a P-value of 0.05 or higher)

Molecule: O=C(NC[C@H](NS(=O)(=O)c1ccccc1)C(=O)O)c1ccc(N2CCC[C@H](NC3=NCCCN3)C2)cc1F [CP derivative 7, (S)-3-(2-fluoro-4-((S)-3-((1,4,5,6-tetrahydropyrimidin-2-yl)amino)piperidin-1-yl)benzamido)-2-(phenylsulfonamido)propanoic acid]
IC50 (integrin αvβ3 [1]): ≤ 1 nM
cell adhesion inhibitory effect (in words) (integrin αvβ3 [1]): high
% Change from baseline in the number of scratchings (mean ± standard error) [2]: −52.0 ± 26.6%
grade of effect on % change from the baseline in the number of scratchings [2]: − (mean change from the baseline was −60% or less at a P-value of 0.05 or higher)

Molecule: O=C(NC[C@H](NS(=O)(=O)c1cccs1)C(=O)O)c1ccc(N2CCC[C@H](NC3=NCCCN3)C2)cc1 [CP derivative 9, (S)-3-(4-((S)-3-((1,4,5,6-tetrahydropyrimidin-2-yl)amino)piperidin-1-yl)benzamido)-2-(thiophene-2-sulfonamido)propanoic acid]
IC50 (integrin αvβ3 [1]): ≤ 1 nM
cell adhesion inhibitory effect (in words) (integrin αvβ3 [1]): high
% Change from baseline in the number of scratchings (mean ± standard error) [2]: −24.5 ± 19.9%
grade of effect on % change from the baseline in the number of scratchings [2]: − (mean change from the baseline was −60% or less at a P-value of 0.05 or higher)

Molecule: CC(C)[C@H]1C(=O)N[C@@H](CCCNC(=N)N)C(=O)NCC(=O)N[C@@H](CC(=O)O)C(=O)N[C@H](Cc2ccccc2)C(=O)N1C [Cilengitide, 2-((2S,5R,8S,11S)-5-benzyl-11-(3-guanidinopropyl)-8-isopropyl-7-methyl-3,6,9,12,15-pentaoxo-1,4,7,10,13-pentaazacyclopentadecan-2-yl)acetic acid]
% Change from baseline in the number of scratchings (mean ± standard error) [2]: −31.7 ± 17.8%

Molecule: O=C(O)C[C@H]1Cc2ccc(OCCCNc3ccccn3)cc2CN(CC(F)(F)F)C1=O [SB-267268 enantiomer, (R)-2-(3-oxo-8-(3-(pyridin-2-ylamino)propoxy)-2-(2,2,2-trifluoroethyl)-2,3,4,5-tetrahydro-1H-benzo[c]azepin-4-yl)acetic acid]
IC50 (integrin αvβ3 [1]): ≥ 1000 nM
% Change from baseline in the number of scratchings (mean ± standard error) [2]: +45.5 ± 28.8%

B1: nemolizumab: anti-IL-31 receptor antibody (antibody, chains of the INN, looked up)
heavy: QVQLVQSGAEVKKPGASVKVSCKASGYTFTGYIMNWVRQAPGQGLEWMGLINPYNGGTDYNPQFQDRVTITADKSTSTAYMELSSLRSEDTAVYYCARDGYDDGPYTLETWGQGTLVTVSSASTKGPSVFPLAPSSKSTSGGTAALGCLVKDYFPEPVTVSWNSGALTSGVHTFPAVLQSSGLYSLSSVVTVPSSNFGTQTYTCNVDHKPSNTKVDKTVERKSCVECPPCPAPPVAGPSVFLFPPKPKDTLMISRTPEVTCVVVDVSQEDPEVQFNWYVDGVEVHNAKTKPREEQFNSTFRVVSVLTVVHQDWLNGKEYKCKVSNKGLPAPIEKTISKTKGQPREPQVYTLPPSQEEMTKNQVSLTCLVKGFYPSDIAVEWESNGQPENNYKTTPPMLDSDGSFFLYSKLTVDKSRWQEGNVFSCSVMHEALHNHYTQKSLSLSP
light: DIQMTQSPSSLSASVGDRVTITCQASEDIYSFVAWYQQKPGKAPKLLIYNAQTEAQGVPSRFSGSGSGTDFTLTISSLQPEDFATYYCQHHYDSPLTFGGGTKVEIKRTVAAPSVFIFPPSDEQLKSGTASVVCLLNNFYPREAKVQWKVDNALQSGNSQESVTEQDSKDSTYSLSSTLTLSKADYEKHKVYACEVTHQGLSSPVTKSFNRGEC
pruritus (IL-31 receptor): improve pruritus
skin inflammation (IL-31 receptor): improving effect on skin inflammation
